Results published in article PMC5762315, “Inhibition of polo-like kinase 4 (PLK4): a new therapeutic option for rhabdoid tumors and pediatric medulloblastoma” (Oncotarget, 2017).
Values joined by “and” are separate entries in the source; they are usually repeats but may differ in a detail not shown here. Equal values may be shown once.

Legend:
Assay in all cases: biochemical
Format in all cases: biochemical
various kinases [1] = target: various kinases (Homo sapiens, UniProt O60674, V617F); conditions: JAK2 JH1 JH2 V617F
various kinases [2] = target: various kinases (Homo sapiens, UniProt O75676); conditions: kinase RPS6KA4 (MSK2); ZLYTE
Sequence of various kinases (Homo sapiens, UniProt O75676) (O75676 whole entry): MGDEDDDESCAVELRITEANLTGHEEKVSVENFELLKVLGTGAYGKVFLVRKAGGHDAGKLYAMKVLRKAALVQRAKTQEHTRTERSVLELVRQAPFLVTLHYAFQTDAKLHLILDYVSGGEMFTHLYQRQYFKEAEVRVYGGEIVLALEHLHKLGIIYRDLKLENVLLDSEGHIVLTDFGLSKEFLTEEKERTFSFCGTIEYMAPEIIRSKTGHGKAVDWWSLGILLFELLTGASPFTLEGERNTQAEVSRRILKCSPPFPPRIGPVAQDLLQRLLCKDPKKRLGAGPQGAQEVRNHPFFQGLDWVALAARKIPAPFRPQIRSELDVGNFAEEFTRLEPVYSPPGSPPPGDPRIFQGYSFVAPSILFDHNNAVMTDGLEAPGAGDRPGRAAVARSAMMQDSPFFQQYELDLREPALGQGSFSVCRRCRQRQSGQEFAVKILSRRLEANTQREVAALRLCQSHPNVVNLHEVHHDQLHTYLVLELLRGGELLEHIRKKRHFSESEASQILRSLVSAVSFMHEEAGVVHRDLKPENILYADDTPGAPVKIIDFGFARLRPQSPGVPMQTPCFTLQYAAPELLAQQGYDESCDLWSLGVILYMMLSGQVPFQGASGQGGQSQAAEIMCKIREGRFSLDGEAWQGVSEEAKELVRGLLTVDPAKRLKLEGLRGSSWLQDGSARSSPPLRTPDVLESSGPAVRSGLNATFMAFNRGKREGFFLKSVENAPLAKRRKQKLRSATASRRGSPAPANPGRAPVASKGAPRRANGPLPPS

various kinases [3] = target: various kinases (Homo sapiens, UniProt O96017); conditions: CHEK2 (CHK2)
Sequence of various kinases (Homo sapiens, UniProt O96017) (O96017 whole entry): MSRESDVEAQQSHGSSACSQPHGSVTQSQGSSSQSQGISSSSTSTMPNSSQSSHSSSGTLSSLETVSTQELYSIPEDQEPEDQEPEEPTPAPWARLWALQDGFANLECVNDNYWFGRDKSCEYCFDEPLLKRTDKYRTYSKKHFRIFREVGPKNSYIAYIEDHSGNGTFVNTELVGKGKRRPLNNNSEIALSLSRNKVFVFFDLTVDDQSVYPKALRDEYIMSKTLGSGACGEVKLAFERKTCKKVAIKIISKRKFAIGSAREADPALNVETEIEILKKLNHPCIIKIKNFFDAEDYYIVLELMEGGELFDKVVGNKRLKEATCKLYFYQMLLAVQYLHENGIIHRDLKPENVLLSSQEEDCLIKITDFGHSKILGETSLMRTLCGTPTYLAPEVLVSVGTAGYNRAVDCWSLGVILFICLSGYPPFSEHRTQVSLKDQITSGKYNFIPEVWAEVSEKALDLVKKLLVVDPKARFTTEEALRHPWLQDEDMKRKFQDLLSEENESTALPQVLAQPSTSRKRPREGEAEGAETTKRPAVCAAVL

various kinases [4] = target: various kinases (Homo sapiens, UniProt P00533, G719S); conditions: EGFR (ErbB1) G719S
various kinases [5] = target: various kinases (Homo sapiens, UniProt P04626); conditions: ERBB2 (HER2)
various kinases [6] = target: various kinases (Homo sapiens, UniProt P07949, Y791F); conditions: kinase RET Y791F; ZLYTE
Sequence of various kinases (Homo sapiens, UniProt P07949, Y791F) (P07949 29-1114 Y791F): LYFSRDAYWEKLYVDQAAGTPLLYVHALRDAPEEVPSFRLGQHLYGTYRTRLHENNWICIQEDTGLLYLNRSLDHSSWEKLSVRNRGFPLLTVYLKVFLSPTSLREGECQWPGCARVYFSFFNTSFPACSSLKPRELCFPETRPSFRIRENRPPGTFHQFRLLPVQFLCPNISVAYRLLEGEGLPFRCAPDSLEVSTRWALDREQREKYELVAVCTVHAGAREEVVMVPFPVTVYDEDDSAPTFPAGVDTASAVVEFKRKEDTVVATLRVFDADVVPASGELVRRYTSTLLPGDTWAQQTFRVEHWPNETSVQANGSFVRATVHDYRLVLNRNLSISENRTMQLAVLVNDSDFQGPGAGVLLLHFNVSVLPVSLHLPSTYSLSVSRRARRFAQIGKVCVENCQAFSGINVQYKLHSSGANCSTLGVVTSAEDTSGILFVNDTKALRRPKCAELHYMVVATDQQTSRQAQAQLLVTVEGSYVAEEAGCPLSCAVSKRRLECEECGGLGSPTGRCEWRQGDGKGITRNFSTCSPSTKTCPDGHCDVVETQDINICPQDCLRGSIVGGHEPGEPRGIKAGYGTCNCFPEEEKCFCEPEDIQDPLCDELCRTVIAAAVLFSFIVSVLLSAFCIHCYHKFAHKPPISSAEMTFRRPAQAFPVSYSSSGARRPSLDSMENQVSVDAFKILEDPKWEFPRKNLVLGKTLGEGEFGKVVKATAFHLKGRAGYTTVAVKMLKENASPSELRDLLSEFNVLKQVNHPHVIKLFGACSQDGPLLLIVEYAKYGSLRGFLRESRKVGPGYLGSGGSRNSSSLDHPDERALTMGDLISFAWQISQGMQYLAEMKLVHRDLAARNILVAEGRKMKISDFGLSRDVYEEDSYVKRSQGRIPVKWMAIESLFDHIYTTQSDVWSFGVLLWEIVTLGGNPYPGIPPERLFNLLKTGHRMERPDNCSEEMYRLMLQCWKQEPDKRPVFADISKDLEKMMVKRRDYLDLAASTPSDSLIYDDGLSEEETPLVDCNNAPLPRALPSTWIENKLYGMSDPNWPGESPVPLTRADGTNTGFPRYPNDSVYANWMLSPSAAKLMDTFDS

various kinases [7] = target: various kinases (Homo sapiens, UniProt P28482); conditions: MAPK1 (ERK2)
Sequence of various kinases (Homo sapiens, UniProt P28482) (P28482 whole entry): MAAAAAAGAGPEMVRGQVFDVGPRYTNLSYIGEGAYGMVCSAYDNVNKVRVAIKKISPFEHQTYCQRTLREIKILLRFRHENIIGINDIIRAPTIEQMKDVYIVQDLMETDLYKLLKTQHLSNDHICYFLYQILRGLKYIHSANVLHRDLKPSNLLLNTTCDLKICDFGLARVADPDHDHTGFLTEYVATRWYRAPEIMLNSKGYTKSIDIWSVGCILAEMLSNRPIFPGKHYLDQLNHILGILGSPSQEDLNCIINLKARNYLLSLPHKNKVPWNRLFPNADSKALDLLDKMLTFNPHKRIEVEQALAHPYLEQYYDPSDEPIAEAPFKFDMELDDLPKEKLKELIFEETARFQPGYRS

various kinases [8] = target: various kinases (Homo sapiens, UniProt P29322); conditions: EPHA8
various kinases [9] = target: various kinases (Homo sapiens, UniProt P29323); conditions: EPHB2
various kinases [10] = target: various kinases (Homo sapiens, UniProt P35626); conditions: ADRBK2 (GRK3)
various kinases [11] = target: various kinases (Homo sapiens, UniProt P36888); conditions: FLT3
various kinases [12] = target: various kinases (Homo sapiens, UniProt P49840); conditions: GSK3A (GSK3 alpha)
Sequence of various kinases (Homo sapiens, UniProt P49840) (P49840 whole entry): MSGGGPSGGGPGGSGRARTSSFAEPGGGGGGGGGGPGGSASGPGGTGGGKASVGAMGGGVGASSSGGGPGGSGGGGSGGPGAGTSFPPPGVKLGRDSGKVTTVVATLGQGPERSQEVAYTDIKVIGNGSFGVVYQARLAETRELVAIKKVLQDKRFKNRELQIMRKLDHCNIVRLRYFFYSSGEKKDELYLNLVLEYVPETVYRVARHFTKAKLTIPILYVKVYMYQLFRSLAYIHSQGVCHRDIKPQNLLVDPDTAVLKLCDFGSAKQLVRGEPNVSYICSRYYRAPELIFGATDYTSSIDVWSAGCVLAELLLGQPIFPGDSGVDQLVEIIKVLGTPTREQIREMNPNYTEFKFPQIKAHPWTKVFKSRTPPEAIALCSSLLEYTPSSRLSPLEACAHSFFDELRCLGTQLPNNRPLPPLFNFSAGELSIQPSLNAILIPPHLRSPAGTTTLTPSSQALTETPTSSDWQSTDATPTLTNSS

various kinases [13] = target: various kinases (Homo sapiens, UniProt P51451); conditions: BLK
various kinases [14] = target: various kinases (Homo sapiens, UniProt Q00535)
Sequence of various kinases (Homo sapiens, UniProt Q00535) (Q00535 whole entry): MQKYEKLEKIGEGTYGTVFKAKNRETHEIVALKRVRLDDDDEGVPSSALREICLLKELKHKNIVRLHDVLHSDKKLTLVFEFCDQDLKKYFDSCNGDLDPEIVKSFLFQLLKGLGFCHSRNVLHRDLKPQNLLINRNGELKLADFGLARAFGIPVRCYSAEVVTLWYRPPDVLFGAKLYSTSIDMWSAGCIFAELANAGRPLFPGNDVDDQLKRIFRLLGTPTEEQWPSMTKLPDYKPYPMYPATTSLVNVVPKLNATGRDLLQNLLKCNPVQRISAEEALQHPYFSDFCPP

various kinases [15] = target: various kinases (Homo sapiens, UniProt Q04912); conditions: MST1R (RON)
various kinases [16] = target: various kinases (Homo sapiens, UniProt Q05655); conditions: kinase PRKCD (PKC delta); ZLYTE
Sequence of various kinases (Homo sapiens, UniProt Q05655) (Q05655 whole entry): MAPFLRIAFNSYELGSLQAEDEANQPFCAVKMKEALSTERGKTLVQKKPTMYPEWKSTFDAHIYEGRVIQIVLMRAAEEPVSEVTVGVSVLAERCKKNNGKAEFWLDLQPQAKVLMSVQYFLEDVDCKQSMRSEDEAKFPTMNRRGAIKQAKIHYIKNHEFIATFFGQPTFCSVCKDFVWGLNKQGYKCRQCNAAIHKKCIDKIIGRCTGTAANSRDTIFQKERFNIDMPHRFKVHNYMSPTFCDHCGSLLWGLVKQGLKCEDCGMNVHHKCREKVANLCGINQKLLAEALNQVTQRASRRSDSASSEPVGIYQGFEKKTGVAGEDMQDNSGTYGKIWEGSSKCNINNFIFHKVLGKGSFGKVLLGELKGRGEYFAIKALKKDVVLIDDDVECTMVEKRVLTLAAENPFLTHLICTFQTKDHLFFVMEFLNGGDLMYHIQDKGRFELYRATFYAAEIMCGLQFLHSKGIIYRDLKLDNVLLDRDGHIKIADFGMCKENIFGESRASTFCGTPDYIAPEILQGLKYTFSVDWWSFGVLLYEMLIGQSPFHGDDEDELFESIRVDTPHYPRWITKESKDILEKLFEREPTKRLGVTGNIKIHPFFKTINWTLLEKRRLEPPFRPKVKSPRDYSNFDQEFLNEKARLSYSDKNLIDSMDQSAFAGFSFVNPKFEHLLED

various kinases [17] = target: T1, various kinases (Homo sapiens, UniProt Q13470); conditions: kinase TNK1; ZLYTE
T1 sequence (Q13470 1-666): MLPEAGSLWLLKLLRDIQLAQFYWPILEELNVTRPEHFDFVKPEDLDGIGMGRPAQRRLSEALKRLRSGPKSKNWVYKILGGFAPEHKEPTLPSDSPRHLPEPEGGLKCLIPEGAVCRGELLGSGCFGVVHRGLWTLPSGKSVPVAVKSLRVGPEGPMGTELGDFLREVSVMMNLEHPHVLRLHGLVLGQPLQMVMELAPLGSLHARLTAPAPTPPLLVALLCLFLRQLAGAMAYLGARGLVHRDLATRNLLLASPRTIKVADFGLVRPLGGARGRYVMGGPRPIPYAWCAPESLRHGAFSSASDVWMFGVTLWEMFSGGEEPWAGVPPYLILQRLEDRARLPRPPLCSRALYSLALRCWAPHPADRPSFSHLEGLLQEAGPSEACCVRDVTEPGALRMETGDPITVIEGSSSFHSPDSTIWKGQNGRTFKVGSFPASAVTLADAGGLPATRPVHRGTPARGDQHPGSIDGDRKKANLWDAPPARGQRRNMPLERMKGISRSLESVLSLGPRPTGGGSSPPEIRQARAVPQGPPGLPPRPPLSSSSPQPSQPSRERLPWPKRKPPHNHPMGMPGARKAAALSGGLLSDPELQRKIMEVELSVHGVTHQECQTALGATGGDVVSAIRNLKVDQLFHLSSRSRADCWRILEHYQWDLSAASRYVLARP

various kinases [18] = target: various kinases (Homo sapiens, UniProt Q14164); conditions: IKBKE (IKK epsilon)
various kinases [19] = target: various kinases (Homo sapiens, UniProt Q15349); conditions: kinase RPS6KA2 (RSK3); ZLYTE
Sequence of various kinases (Homo sapiens, UniProt Q15349) (Q15349 whole entry): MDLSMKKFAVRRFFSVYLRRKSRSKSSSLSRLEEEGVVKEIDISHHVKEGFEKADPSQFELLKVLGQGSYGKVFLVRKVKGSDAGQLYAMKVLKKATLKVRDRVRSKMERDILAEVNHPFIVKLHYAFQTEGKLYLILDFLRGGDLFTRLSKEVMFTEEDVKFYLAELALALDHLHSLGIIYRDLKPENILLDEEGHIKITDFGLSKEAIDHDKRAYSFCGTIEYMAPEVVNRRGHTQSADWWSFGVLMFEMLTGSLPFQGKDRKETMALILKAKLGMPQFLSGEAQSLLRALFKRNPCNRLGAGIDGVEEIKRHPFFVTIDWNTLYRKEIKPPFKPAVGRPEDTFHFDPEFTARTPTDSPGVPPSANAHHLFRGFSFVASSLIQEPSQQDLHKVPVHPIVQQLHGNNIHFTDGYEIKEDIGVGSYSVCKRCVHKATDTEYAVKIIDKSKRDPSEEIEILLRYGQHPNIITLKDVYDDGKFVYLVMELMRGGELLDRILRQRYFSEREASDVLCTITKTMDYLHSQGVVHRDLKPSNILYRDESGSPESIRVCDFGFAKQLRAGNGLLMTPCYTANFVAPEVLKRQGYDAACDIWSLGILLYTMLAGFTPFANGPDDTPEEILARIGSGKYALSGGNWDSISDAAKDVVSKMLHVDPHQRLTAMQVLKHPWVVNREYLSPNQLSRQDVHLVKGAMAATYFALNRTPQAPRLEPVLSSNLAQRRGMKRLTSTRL

various kinases [20] = target: T2, various kinases (Homo sapiens, UniProt Q96BR1); conditions: kinase SGKL (SGK3); ZLYTE
T2 sequence (Q96BR1 1-496): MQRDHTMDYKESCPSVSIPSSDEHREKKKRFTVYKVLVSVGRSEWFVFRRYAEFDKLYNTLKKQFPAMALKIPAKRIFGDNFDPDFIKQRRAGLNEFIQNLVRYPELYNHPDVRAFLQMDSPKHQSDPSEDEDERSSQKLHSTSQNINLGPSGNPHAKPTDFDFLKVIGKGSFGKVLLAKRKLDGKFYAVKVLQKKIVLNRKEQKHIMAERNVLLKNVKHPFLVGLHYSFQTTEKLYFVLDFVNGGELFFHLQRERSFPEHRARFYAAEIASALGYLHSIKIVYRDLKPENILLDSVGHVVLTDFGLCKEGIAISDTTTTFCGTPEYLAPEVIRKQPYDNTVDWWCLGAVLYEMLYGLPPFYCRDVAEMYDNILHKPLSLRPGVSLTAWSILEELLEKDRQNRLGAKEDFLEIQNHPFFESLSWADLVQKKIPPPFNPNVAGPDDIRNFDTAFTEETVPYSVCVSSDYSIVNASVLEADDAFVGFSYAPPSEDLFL

various kinases [21] = target: various kinases (Homo sapiens, UniProt Q96RG2); conditions: PASK
various kinases [22] = target: various kinases (Homo sapiens, UniProt Q9NQU5); conditions: PAK6
various kinases [23] = target: various kinases (Homo sapiens, UniProt Q9Y4K4); conditions: MAP4K5 (KHS1)
Throughout, for % Inhibition Average: test concentration or dose not given here.
Throughout, for % Inhibition Duplicate #1: test concentration or dose not given here.
Throughout, for % Inhibition Duplicate #2: test concentration or dose not given here.

`COc1ccc2c(c1)[C@]1(C[C@H]1c1ccc3c(/C=C/c4ccc(CN5C[C@@H](C)O[C@@H](C)C5)cc4)n[nH]c3c1)C(=O)N2` [CFI-400945] was tested, and the “% Inhibition” value (various kinases [1]) was 8% and 9%, the “% Inhibition Average” value (various kinases [2]) was 0% and the “% Inhibition Duplicate #1” value (various kinases [2]) was -2%. For the same compound, the “% Inhibition Duplicate #2” value (various kinases [2]) was 3%, the “% Inhibition” value (various kinases [3]) was 3% and 2% and the “% Inhibition” value (various kinases [4]) was 5%. For the same compound, the “% Inhibition” value (various kinases [5]) was -2% and 1%, the “% Inhibition Average” value (various kinases [6]) was 14% and the “% Inhibition Duplicate #1” value (various kinases [6]) was 13%. The “% Inhibition Duplicate #2” value (various kinases [6]) was 14%, the “% Inhibition” value (various kinases [7]) was 9% and 7% and the “% Inhibition” value (various kinases [8]) was -5% and 0%. The “% Inhibition” value (various kinases [9]) was 5%, the “% Inhibition” value (various kinases [10]) was 4% and 7% and the “% Inhibition” value (various kinases [11]) was 74%. The IC50 (various kinases [11]) was 59.7 nM, the “% Inhibition” value (various kinases [12]) was 3% and 4% and the “% Inhibition” value (various kinases [13]) was 9% and 14%. The “% Inhibition” value (various kinases [14]; CDK5/p25) was 6% and 8%, the “% Inhibition” value (various kinases [14]; CDK5/p35) was 2% and 3% and the “% Inhibition” value (various kinases [15]) was 8% and 9%. The “% Inhibition Average” value (various kinases [16]) was -2%, the “% Inhibition Duplicate #1” value (various kinases [16]) was -8% and the “% Inhibition Duplicate #2” value (various kinases [16]) was 4%. For the same compound, the “% Inhibition Average” value (various kinases [17]) was 30%, the “% Inhibition Duplicate #1” value (various kinases [17]) was 26% and the “% Inhibition Duplicate #2” value (various kinases [17]) was 34%. For the same compound, the “% Inhibition” value (various kinases [18]) was -1% and 1%, the “% Inhibition Average” value (various kinases [19]) was 12% and the “% Inhibition Duplicate #1” value (various kinases [19]) was 11%. For the same compound, the “% Inhibition Duplicate #2” value (various kinases [19]) was 13%, the “% Inhibition Average” value (various kinases [20]) was 3% and the “% Inhibition Duplicate #1” value (various kinases [20]) was 4%. The “% Inhibition Duplicate #2” value (various kinases [20]) was 2%, the “% Inhibition” value (various kinases [21]) was 7% and 2% and the “% Inhibition” value (various kinases [22]) was 12% and 7%. For the same compound, the “% Inhibition” value (various kinases [23]) was 12% and 23%.
